From patent publication US20020136691A1, “Pharmacological evaluation test (PET) in animals for continuous assessment of physiological functions” (priority 2000, published 2002) come the findings set out here.

Data set [1] concerns Sprague Dawley rats. In words: Cardiovascular monitoring (blood pressure, heart rate) by DSI telemetry. Type of data set: in vivo. How it is done: For the cardiovascular/renal function arm, a Data Sciences International (DSI, St Paul, Minn.) TA11PA-C40 implant was placed in the abdominal aorta of each rat.
Cardiovascular function and motility were assessed in conscious freely moving rats using DSI telemetry recording equipment. On the day of recording, the rats were placed into metabolism cages for simultaneous urine collection. Parameters monitored included blood pressure (BP), heart rate (HR) and activity. Measurements were taken at scheduled intervals (i.e., 10 sec. of data collection once every 2 min. for each rat) over 24 hours. An appropriate baseline period of at least 30 minutes was collected prior to animal dosing. For dosing, rats were briefly removed from their cage, weighed, dosed and returned.
Blood pressure, heart rate and activity were measured for 10 seconds once every 2 minutes for 24 hours. Blood pressure and heart rate were routinely evaluated at baseline, 30 min, 1 h, 2 h, 4 h, 6 h, 8 h, 12 h, 16 h and 20 h post-administration. The last 20 minutes before the start of treatment on Day 1, time-point values were averaged and taken as the baseline value for each rat. The other time-point values were obtained by averaging data 10 minutes prior and 10 minutes post each time-point. […] An analysis of variance was performed with the factors: treatment, animal (according to treatment), time, and treatment time interaction; time incorporated all measurements on the four days. The adjusted mean values post-treatment were compared with baseline. If there was a significant treatment time interaction, tests were performed for comparing the three treatment groups for each time-point. If such a test was significant, the adjusted mean values of the treated group were compared with the concurrent vehicle group for this time-point.

Data set [2] deals with Sprague Dawley rats. Nature of the data set: Pulmonary function, BUXCO unrestrained whole body plethysmograph. Format: in vivo. How it is done:
For rats in the pulmonary/CNS arm, pulmonary function (respiratory frequency and tidal volume) was assessed incorporating the BUXCO Unrestrained Whole Body Plethysmograph technique. Rats were placed in a BUXCO chamber, and a 10-minute baseline-recording period was collected. Following the baseline-recording period, the rats were removed from the chambers, orally dosed and returned for a 60-minute period of data collection. At the conclusion of the experiment, the rats were removed from the chambers, and tested for modified Irwin profiling.
The respiratory signal was measured continuously for 10 minutes prior to dosing and […] post-dosing. Respiratory frequency and tidal volume were then extracted from this respiratory signal, and evaluated on a breath-by-breath basis over the course of a one-minute period. These calculated breath-by-breath values for respiratory frequency and tidal volume were averaged over 5-minute segments for the extent of the monitoring period. The time course for these values was then plotted as the mean ±standard deviation for each group studied. An analysis of variance similar to that described above for cardiovascular parameters was also performed.

Data set [3] deals with Sprague Dawley rats. Type of data set: in vivo.
Protocol: Additional CNS monitoring was performed following pulmonary function assessment in that arm of the study. Rats were returned to their home cages and at 65 minutes post-dosing, the rats were placed in Plexiglas observation cylinders. Compound treated rats were systematically compared to vehicle treated rats for behavioral, neurologic and autonomic changes according to a modification of the method described by Irwin. […] The following functions were assessed: increased/decreased motor activity, ataxia, paralysis, tremor, convulsions, abnormal respiration, enhanced salivation, skin color, abnormal feces, death, righting reflex, visual orientation, grip reflex, muscle tone, rectal body temperature, and tail pinch. Body temperatures were also recorded both prior to dosing (baseline) and during modified Irwin testing post-dosing using a Yellow Springs Instruments Telethermometer and rectal probe or equivalent. Following modified Irwin testing, rats were administered anesthesia to effect and blood was collected.
For body temperatures, CBC values, clinical chemistry values, plasma levels and organ weight ratios, means were calculated (±standard deviation or standard error of the mean) and reported where applicable. Statistical evaluations for compound related effects were performed using the Student's t test (paired) and reported as significant if p<0.05.
In data set [4] the test system is Sprague Dawley rats. In words: Renal function monitoring (urine collection in metabolism cages). Type of data set: in vivo. The note with it: 10 and 30 mg/kg p.o., acute; males and females (FIG. 4).
Protocol: Renal function monitoring was conducted simultaneously with cardiovascular testing. Urine was collected for 0-8 and 8-24 hour time-points. Prior to telemetry data collection, DSI receivers equipped with special mounting strips were hung upside down on metabolism racks (Lab Products, Maywood, N.J.). Metabolism cages were then suspended from the DSI receivers and assembled to provide for food, water, and urine collection. […] Rats were weighed and placed into the recording metabolism cages for a baseline collection period (i.e., 30 minutes). After baseline, each rat was removed, dosed and returned. Pre-weighed collection tubes were placed under each metabolism cage. At 8 hours, the collection tubes were removed, weighed, and replaced with another set of pre-weighed tubes for the 8-24 hour time-point. At 24 hours, collection tubes were again removed and weighed. Following the 24 hour urine collection, rats were anesthetized and blood was collected.
Renal function was evaluated in the cardiovascular/renal function arm. Urine volume was calculated gravimetrically at each time-point. Urine flow was then calculated by (urine volume/time times or ×100/body weight (g)). Flow values were then plotted as the mean ±standard deviation for each group. […] Statistical significance (p<0.05) was assessed using the paired Student's t test.
In another data set the test system is Wistar rats. The note with it: 1, 3 or 10 mg/kg p.o., acute.
Data set [5] can be described thus: Body weight, PET rat study. Type of data set: in vivo, Sprague Dawley rats. Particulars: 300 and 1000 mg/kg p.o., subacute; males and females (FIG. 3). How it is done:
FIG. 3. […] Individual rat body weights were recorded daily in grams using an Ohaus Navigator™ digital balance.
Male and female Sprague Dawley rats from Charles River were used in these experiments. For the “standard” protocol, a total of 48 rats were used. Twenty-four rats (12 female rats and 12 male rats) were placed in the acute pulmonary function/CNS evaluation arm of the study, and 24 rats (12 female rats and 12 male rats) were placed in the subacute cardiovascular/renal arm of the study. Rats in both arms were further divided into 4 subgroups (3 male rats and 3 female rats) which were dosed with vehicle or compound at dose 1, dose 2; or dose 3. Rats in the pulmonary function/CNS evaluation arm of the study were administered a single dose of vehicle or compound. […]
Rats in the cardiovascular/renal function arm of the study (with telemetry implants) were administered daily doses of vehicle or compound for 5 days. Blood pressure, heart rate and motility were continuously monitored 24 hours/day over four days via telemetry recording. Urine was collected 0-8 and 8-24 hours post-dosing on Days 1 and 4 and assessed for changes in volume output and electrolyte excretion. […]
Cardiovascular function and motility were assessed in conscious freely moving rats using DSI telemetry recording equipment. […] Parameters monitored included blood pressure (BP), heart rate (HR) and activity. […]

As for `C[C@H](N)Cc1ccccc1` [d-amphetamine], in the data set on Sprague Dawley rats [1] (males, 8 mg/kg p.o.), the BP result is “slightly increased” and the HR result is recorded as “slightly increased”. Further, the Respiratory frequency entry with Sprague Dawley rats [2] (2 and 8 mg/kg p.o., male and female, acute and subacute dosing (FIG. 1)) was “increased in a dose dependent manner”. Further, the “Overt behavioral effects observed” value in the data set on Sprague Dawley rats [3] (2 and 8 mg/kg p.o., male and female, acute and subacute) was “increased motility, sniffing, rearing, head weaving and vocalization”.
Regarding `CN1C(=O)CN=C(c2ccccc2)c2cc(Cl)ccc21` [diazepam], in the data set with Sprague Dawley rats [1] (20 and 80 mg/kg p.o.), the “Effects in the CV system” value was “No relevant effects”. Also, in the data set with Sprague Dawley rats [2] (20 and 80 mg/kg p.o.), the “Effects in the pulmonary system” value was “No relevant effects”. Besides, in the data set on Sprague Dawley rats [3] (rat, in vivo), the “Modified Irwin profiling” value is “dose dependent effects on motility, coordination, muscle tone and body temperature”.
Regarding `NS(=O)(=O)c1cc(C(=O)O)c(NCc2ccco2)cc1Cl` [furosemide], the Urine output entry in the data set with Sprague Dawley rats [4] is listed as “dose dependently increased”.
Regarding `COC(=O)C1=C(C)NC(C)=C(C(=O)OC)C1c1ccccc1[N+](=O)[O-]` [nifedipine], in the data set with Wistar rats, the Body temperature entry was “No effects”, the Heart rate result is “dose dependent increase”, the Motility entry is listed as “No effects” and the Respiration entry was “No effects”.
For `C[C@]12C=CC(=O)C=C1CC[C@@H]1[C@@H]2[C@@H](O)C[C@@]2(C)[C@H]1CC[C@]2(O)C(=O)CO` [prednisolone], the “Effects in the CV system” value with Sprague Dawley rats [1] (300 and 1000 mg/kg p.o.) is recorded as “No relevant effects”. Further, in data set [5], the Body weight entry is listed as “decrease in body weight”.
